Values joined by “and” are separate entries in the source; they are usually repeats but may differ in a detail not shown here. Equal values may be shown once. Where a name gives a salt, the structure may show the parent alone. Read-outs that look alike come from different tables or passages of the source.
Experiments:
cancer cell lines = test: Cell viability analysis (WST-1) on cancer cell lines; format: cell-based, human; conditions: drug 10 μM, 72 hours, WST-1; Table 3
[1] = system: HI650 (Lung Adenocarcinoma); test: Cell viability analysis, lung cancer HI650; format: cell-based, human; conditions: Homo sapiens, NCI-H1650, 72 h
[2] = system: A549 (Lung Adenocarcinoma); test: Cell viability analysis, lung cancer A549; format: cell-based, human; conditions: Homo sapiens, A549, 72 h
[3] = system: AGS (Gastric Adenocarcinoma); test: Cell viability analysis, gastric cancer AGS; format: cell-based, human; conditions: Homo sapiens, 72 h
[4] = system: MKN-45 (Gastric Adenocarcinoma); test: Cell viability analysis, gastric cancer MKN-45; format: cell-based, human; conditions: Homo sapiens, MKN-45, 72 h
[5] = system: HepG2 (Hepatocellular Carcinoma); test: Cell viability analysis, hepatic cancer HepG2; format: cell-based, human; conditions: Homo sapiens, HepG2, 72 h
[6] = system: Hep3B (hepatocellular carcinoma); test: Cell viability analysis, hepatic cancer Hep3B; format: cell-based, human; conditions: Homo sapiens, Hep3B, 72 h, read-out: The results of antibiotic drug inhibiting cancer cell lines (cell viability analysis), Hep3B
[7] = system: LoVo (Colorectal Adenocarcinoma); test: Cell viability analysis, colon cancer LoVo; format: cell-based, human; conditions: Homo sapiens, LoVo, 72 h
[8] = system: A375 (Amelanotic Melanoma); test: Cell viability analysis, skin cancer A375; format: cell-based, human; conditions: Homo sapiens, A-375, 72 h
[9] = system: HeLa (Cervix Adenocarcinoma); test: Cell viability analysis, cervical cancer HeLa; format: cell-based, human; conditions: Homo sapiens, HeLa, 72 h
[10] = system: C-33A (Cervical carcinoma); test: Cell viability analysis, cervical cancer C-33A; format: cell-based, human; conditions: Homo sapiens, C-33-A, 72 h, read-out: The results of antibiotic drug inhibiting cancer cell lines (cell viability analysis), C-33A
[11] = system: PC3 (p53−) (Prostate Adenocarcinoma); test: Cell viability analysis, prostate cancer PC3; format: cell-based, human; conditions: Homo sapiens, 72 h
[12] = system: TSGH-8301 (Urinary Bladder Carcinoma); test: Cell viability analysis, bladder cancer TSGH-8301; format: cell-based, human; conditions: Homo sapiens, 72 h
[13] = system: MCF7 (Mammary Gland, Adenocarcinoma); test: Cell viability analysis, breast cancer MCF7; format: cell-based, human; conditions: Homo sapiens, MCF7, 72 h
[14] = system: MDA-MB-231 (Mammary Gland, Adenocarcinoma); test: Cell viability analysis, breast cancer MDA-MB-231; format: cell-based, human; conditions: Homo sapiens, MDA-MB-231, 72 h, read-out: The results of antibiotic drug inhibiting cancer cell lines (cell viability analysis), MDA-MB231
BxPC-3 = test: Cell viability analysis, pancreatic cancer BxPC-3; format: cell-based, human; conditions: Homo sapiens, BXPC-3, 72 h, read-out: The results of antibiotic drug inhibiting cancer cell lines (cell viability analysis), BxPC-3
AsPC-1 = test: Cell viability analysis, pancreatic cancer AsPC-1; format: cell-based, human; conditions: Homo sapiens, ASPC1, 72 h, read-out: The results of antibiotic drug inhibiting cancer cell lines (cell viability analysis), AsPC-1
NIH: OVCAR-3 = test: Cell viability analysis, ovarian cancer NIH: OVCAR-3; format: cell-based, human; conditions: Homo sapiens, OVCAR-3, 72 h, read-out: The results of antibiotic drug inhibiting cancer cell lines (cell viability analysis), NIH-OVCAR-3
TOV-21G = test: Cell viability analysis, ovarian cancer TOV-21G; format: cell-based, human; conditions: Homo sapiens, TOV21G, 72 h, read-out: The results of antibiotic drug inhibiting cancer cell lines (cell viability analysis), TOV-21G
[15] = system: SAS (Tongue squamous cell carcinoma); test: Cell viability analysis, tongue cancer SAS; format: cell-based, human; conditions: Homo sapiens, 72 h, read-out: The results of antibiotic drug inhibiting cancer cell lines (cell viability analysis), SAS
U-2OS = test: Cell viability analysis, osteosarcoma U-2OS; format: cell-based, human; conditions: Homo sapiens, U2OS, 72 h, read-out: The results of antibiotic drug inhibiting cancer cell lines (cell viability analysis), U2OS
[16] = system: 786-O (Renal adenocarcinoma); test: Cell viability analysis, renal cancer 786-O; format: cell-based, human; conditions: Homo sapiens, 786-0, 72 h, read-out: The results of antibiotic drug inhibiting cancer cell lines (cell viability analysis), 786-O
[17] = system: HL-60 (Acute Promyelocytic Leukemia); test: Cell viability analysis, leukemia HL-60; format: cell-based, human; conditions: Homo sapiens, HL-60, 72 h, read-out: cell viability (survival rate), HL-60, drug 10 μM, 72 hours, WST-1, OD450 nm
[18] = system: HCT116 (p53+) (Colorectal Carcinoma)

CN(C)[C@@H]1C(O)=C(C(N)=O)C(=O)[C@@]2(O)C(O)=C3C(=O)c4c(O)cccc4[C@@](C)(O)[C@H]3C[C@@H]12 [Tetracycline HCl]
inhibition effect on different cancer cell lines (cancer cell lines): significant inhibition effect
viability at 10 µM ([1]; read-out: The results of antibiotic drug inhibiting cancer cell lines (cell viability analysis), H1650, H1650, repeated experiment): 87.1%
viability at 10 µM ([1]; read-out: cell viability (survival rate), H1650, drug 10 μM, 72 hours, WST-1, OD450 nm): 41.1%
viability at 10 µM ([2]; read-out: The results of antibiotic drug inhibiting cancer cell lines (cell viability analysis), A549, A549, repeated experiment): 99.7%
viability at 10 µM ([2]; read-out: cell viability (survival rate), A549, drug 10 μM, 72 hours, WST-1, OD450 nm): 72.8%
viability at 10 µM ([3]; read-out: The results of antibiotic drug inhibiting cancer cell lines (cell viability analysis), AGS, repeated experiment): 94%
viability at 10 µM ([3]; read-out: cell viability (survival rate), AGS, drug 10 μM, 72 hours, WST-1, OD450 nm): 88.2%
viability at 10 µM ([4]; read-out: The results of antibiotic drug inhibiting cancer cell lines (cell viability analysis), MKN-45, MKN-45, repeated experiment): 133%
viability at 10 µM ([4]; read-out: cell viability (survival rate), MKN-45, drug 10 μM, 72 hours, WST-1, OD450 nm): 55.9%
viability at 10 µM ([5]; read-out: The results of antibiotic drug inhibiting cancer cell lines (cell viability analysis), HepG2, HepG2, repeated experiment): 106%
viability at 10 µM ([5]; read-out: cell viability (survival rate), HepG2, drug 10 μM, 72 hours, WST-1, OD450 nm): 74.1%
viability at 10 µM [6]: 92.2%
viability at 10 µM ([7]; read-out: The results of antibiotic drug inhibiting cancer cell lines (cell viability analysis), LoVo, repeated experiment): 92%
viability at 10 µM ([7]; read-out: cell viability (survival rate), LoVo, drug 10 μM, 72 hours, WST-1, OD450 nm): 71.8%
viability at 10 µM ([8]; read-out: The results of antibiotic drug inhibiting cancer cell lines (cell viability analysis), A375, A375, repeated experiment): 82.8%
viability at 10 µM ([8]; read-out: cell viability (survival rate), A375, drug 10 μM, 72 hours, WST-1, OD450 nm): 74.1%
viability at 10 µM ([9]; read-out: The results of antibiotic drug inhibiting cancer cell lines (cell viability analysis), HeLa, repeated experiment): 79%
viability at 10 µM ([9]; read-out: cell viability (survival rate), HeLa, drug 10 μM, 72 hours, WST-1, OD450 nm): 96.1%
viability at 10 µM [10]: 103%
viability at 10 µM ([11]; read-out: The results of antibiotic drug inhibiting cancer cell lines (cell viability analysis), PC-3, PC-3, repeated experiment): 104%
viability at 10 µM ([11]; read-out: cell viability (survival rate), PC3, drug 10 μM, 72 hours, WST-1, OD450 nm): 42.9%
viability at 10 µM ([12]; read-out: The results of antibiotic drug inhibiting cancer cell lines (cell viability analysis), TSGH-8301, TSGH-8301, repeated experiment): 103%
viability at 10 µM ([12]; read-out: cell viability (survival rate), TSGH, drug 10 μM, 72 hours, WST-1, OD450 nm): 34.1%
viability at 10 µM ([13]; read-out: The results of antibiotic drug inhibiting cancer cell lines (cell viability analysis), MCF-7, MCF-7, repeated experiment): 93.1%
viability at 10 µM ([13]; read-out: cell viability (survival rate), MCF7, drug 10 μM, 72 hours, WST-1, OD450 nm): 75.9%
viability at 10 µM [14]: 88.1%
viability at 10 µM (BxPC-3): 77.7%
viability at 10 µM (AsPC-1): 96.7%
viability at 10 µM (NIH: OVCAR-3): 104%
viability at 10 µM (TOV-21G): 81.9%
viability at 10 µM [15]: 79.2%
viability at 10 µM (U-2OS): 53.3%
viability at 10 µM [16]: 99.9%
viability at 10 µM [17]: 93.7%
viability [18]: 115% and 114%

From patent US10105357B2, “Indication of antibiotic drugs for preparation of cancer inhibition pharmaceutical composition” (LAUNX BIOMEDICAL CO., LTD., priority 2014, dated 2018)
